± gives the standard deviation of the averaged measurements.
Legend:
Details in all cases: 72 h
[1] = tested on: HepG2; experiment: drug sensitivity score (DSS) for viability; higher = more toxic; extreme values may be limits of the assay
[2] = tested on: Caco-2; experiment: as above
[3] = tested on: U2OS; experiment: as above
[4] = tested on: Calu-3; experiment: as above
[5] = tested on: Vero E6; experiment: as above
[6] = tested on: HepG2; experiment: cell viability relative to DMSO; higher = less toxic
[7] = tested on: Caco-2; experiment: as above
[8] = tested on: U2OS; experiment: as above
[9] = tested on: Calu-3; experiment: as above
[10] = tested on: Vero E6; experiment: as above
[11] = tested on: HepG2; experiment: relative viability EC50 (midpoint between 100% and the lowest measured viability); higher = less toxic
[12] = tested on: Caco-2; experiment: as above
[13] = tested on: U2OS; experiment: as above
[14] = tested on: Calu-3; experiment: as above
[15] = tested on: Vero E6; experiment: as above

| SMILES | drug sensitivity score [1] | drug sensitivity score [2] | drug sensitivity score [3] | drug sensitivity score [4] | drug sensitivity score [5] | cell viability ([6]; 1 nM) [%] | cell viability ([6]; 10 nM) [%] | cell viability ([6]; 100 nM) [%] | cell viability ([6]; 1000 nM) [%] | cell viability ([6]; 10000 nM) [%] | cell viability ([7]; 1 nM) [%] | cell viability ([7]; 10 nM) [%] | cell viability ([7]; 100 nM) [%] | cell viability ([7]; 1000 nM) [%] | cell viability ([7]; 10000 nM) [%] | cell viability ([8]; 1 nM) [%] | cell viability ([8]; 10 nM) [%] | cell viability ([8]; 100 nM) [%] | cell viability ([8]; 1000 nM) [%] | cell viability ([8]; 10000 nM) [%] | cell viability ([9]; 1 nM) [%] | cell viability ([9]; 10 nM) [%] | cell viability ([9]; 100 nM) [%] | cell viability ([9]; 1000 nM) [%] | cell viability ([9]; 10000 nM) [%] | cell viability ([10]; 1 nM) [%] | cell viability ([10]; 10 nM) [%] | cell viability ([10]; 100 nM) [%] | cell viability ([10]; 1000 nM) [%] | cell viability ([10]; 10000 nM) [%] | relative viability EC50 [11] [µM] | relative viability EC50 [12] [µM] | relative viability EC50 [13] [µM] | relative viability EC50 [14] [µM] | relative viability EC50 [15] [µM] |
| --- | --- | --- | --- | --- | --- | --- | --- | --- | --- | --- | --- | --- | --- | --- | --- | --- | --- | --- | --- | --- | --- | --- | --- | --- | --- | --- | --- | --- | --- | --- | --- | --- | --- | --- | --- |
| CC[C@]1(O)C[C@@H]2CN(CCc3c([nH]c4ccccc34)[C@@](C(=O)OC)(c3cc4c(cc3OC)N(C)[C@H]3[C@@](O)(C(=O)OC)[C@H](OC(C)=O)[C@]5(CC)C=CCN6CC[C@]43[C@@H]65)C2)C1 [Vinblastine (sulfate)] | 27.8 | 24.1 | 31.8 | 22 | 20.6 | 99.3 | 43.9 | 34.7 | 32.5 | 34.8 | 90.3 | 56.8 | 44.4 | 43.9 | 27.7 | 96.1 | 48.1 | 24.9 | 19.6 | 16.8 | 87.5 | 64.9 | 50.5 | 41.6 | 34.3 | 100 | 91.3 | 48.8 | 30.1 | 18.1 | 0.0053 | 0.0105 | 0.0071 | 0.0105 | 0.0688 |
| CC[C@]1(O)C[C@H]2CN(CCc3c([nH]c4ccccc34)[C@@](C(=O)OC)(c3cc4c(cc3OC)N(C=O)[C@H]3[C@@](O)(C(=O)OC)[C@H](OC(C)=O)[C@]5(CC)C=CCN6CC[C@]43[C@@H]65)C2)C1 [Vincristine (sulfate)] | 24.3 | 23.3 | 24.7 | 19.1 | 14.4 | 109 | 68.4 | 39.2 | 35.4 | 36.9 | 91.9 | 66 | 42.5 | 41.4 | 34.8 | 97.1 | 80.8 | 35.4 | 19.5 | 17.6 | 88 | 78.2 | 54.8 | 39.6 | 34.6 | 98.9 | 102 | 82.9 | 34.2 | 29.8 | 0.0102 | 0.0094 | 0.0302 | 0.0248 | 0.196 |
| COC(=O)c1ccc(N2CCN(C)CC2)c(NC(=O)c2cccc(OC)c2)c1 [WDR5-0103] | 0 | 0 | 0 | 0 | 0 | 102 | 114 | 85.5 | 112 | 102 | 88.8 | 97.5 | 91.7 | 99.9 | 89.8 | 98.5 | 94.8 | 96.8 | 95.5 | 101 | 98.9 | 93.4 | 99.5 | 97.4 | 97.8 | 94.6 | 98.2 | 94.2 | 102 | 103 | > 10 | > 10 | > 10 | > 10 | > 10 |
| C=CC(=O)Nc1cccc(Oc2nc(Nc3ccc(N4CCN(C)CC4)cc3)ncc2Cl)c1 [WZ-3146] | 6.7 | 8.3 | 9.7 | 13.9 | 10.3 | 108 | 100 | 109 | 75 | 38.7 | 90.7 | 100 | 99.3 | 78.3 | 11.6 | 97.6 | 100 | 95.5 | 72.1 | 0.2 | 95.9 | 89.9 | 86.4 | 36.9 | 2.3 | 104 | 99.3 | 106 | 59.9 | 7.8 | 1.16 | 1.56 | 1.46 | 0.539 | 1.11 |
| CC(C)c1cc(CNc2nc(Nc3cc(C4CC4)[nH]n3)cc(N3CCN(C)CC3)n2)on1 [XL228] | 16.2 | 6.7 | 15.1 | 8.8 | 7.8 | 95.3 | 98.3 | 62.4 | 40.6 | 7.4 | 111 | 94.4 | 93 | 72.5 | 33.1 | 104 | 103 | 84.8 | 30 | 0 | 95.7 | 99.3 | 87.3 | 61.5 | 33.9 | 94 | 97.8 | 101 | 75.3 | 23 | 0.266 | 1.22 | 0.47 | 0.593 | 1.35 |
| CC(=O)c1ccc(S(=O)(=O)NC(=O)NC2CCCCC2)cc1 [acetohexamide] | 0 | 3.7 | 0 | 0 | 0 | 99.5 | 103 | 106 | 113 | 106 | 97.1 | 85.8 | 90.7 | 75.4 | 83.1 | 95.1 | 98 | 96.6 | 96.3 | 96.9 | 91.8 | 112 | 90.2 | 107 | 104 | 92.7 | 98.2 | 97.1 | 98.9 | 110 | > 10 | > 10 | > 10 | > 10 | > 10 |
| O=C(O)C(=O)Nc1cccc(-c2nnn[nH]2)c1 [acitazanolast] | 0 | 0 | 0 | 0 | 0 | 94.8 | 99 | 101 | 96.3 | 110 | 100 | 86.7 | 88.4 | 95.9 | 97.1 | 99.8 | 98.4 | 99.3 | 101 | 96 | 100 | 107 | 91.3 | 105 | 99 | 98.7 | 99.5 | 99.4 | 100 | 97.4 | > 10 | > 10 | > 10 | > 10 | > 10 |
| O=C(NCCN1CCN(c2ncccn2)CC1)C12CC3CC(CC(C3)C1)C2 [adatanserin] | 0.9 | 0 | 0 | 0 | 0 | 102 | 98 | 88.5 | 90.7 | 90.9 | 92 | 114 | 94.7 | 102 | 88.5 | 94.9 | 94.2 | 97.8 | 96.9 | 97.4 | 101 | 96.5 | 107 | 86.8 | 101 | 99.5 | 97.9 | 101 | 99.4 | 104 | > 10 | > 10 | > 10 | > 10 | > 10 |
| Nc1ncnc2c1ncn2[C@@H]1O[C@H](CO)[C@@H](O)[C@H]1O [adenosine] | 0.1 ± 0.14 | 0 | 0 | 0 | 0 | 98.05 ± 0.21 | 102 ± 6.9 | 96.7 ± 6.6 | 110 ± 9.2 | 88 ± 9.1 | 103 ± 2.4 | 100 ± 4.7 | 97.9 ± 1.8 | 94.5 ± 1.1 | 95.2 ± 8.6 | 102 ± 1.8 | 98 ± 3 | 98.2 ± 3.2 | 98.5 ± 2.2 | 104 ± 5.9 | 107 | 88.4 | 96.3 | 96.1 | 95.2 | 102.5 ± 0.99 | 102 ± 2.3 | 97.3 ± 3.5 | 103.5 ± 0.35 | 99.95 ± 0.35 | > 10 | > 10 | > 10 | > 10 | > 10 |
| O=C(NCc1ccc2c(c1)OCO2)c1c(Cl)cccc1Cl [alda-1] | 0 | 0 | 0 | 0 | 0 | 92 | 105 | 99.8 | 101 | 95.9 | 93 | 91.3 | 100 | 93.1 | 99.1 | 103 | 99.8 | 99 | 100 | 100 | 91.7 | 100 | 109 | 102 | 108 | 94.2 | 105 | 98.8 | 91.2 | 98.3 | > 10 | > 10 | > 10 | > 10 | > 10 |
| C=C1/C(=C\C=C2/CCC[C@]3(C)[C@@H]([C@H](C)CCCC(C)C)CC[C@@H]23)C[C@@H](O)C[C@@H]1O [alfacalcidol] | 0 | 1.5 | 0 | 0 | 0 | 91.4 | 105 | 98.4 | 108 | 102 | 98.2 | 98.1 | 92.5 | 85 | 85.9 | 94.1 | 93.7 | 99 | 89.1 | 91.5 | 90.9 | 94.3 | 99.6 | 87.5 | 101 | 90.2 | 98.3 | 92.2 | 97.1 | 101 | > 10 | > 10 | > 10 | > 10 | > 10 |
| C=CCc1cc(OC)c(O)c(C(=O)NCCO)c1 [alibendol] | 0 | 0 | 0 | 0 | 0 | 92.4 | 98.7 | 101 | 92.5 | 102 | 90.7 | 112 | 90.5 | 93 | 99.9 | 102 | 105 | 95 | 104 | 99.6 | 93.6 | 99.3 | 87.2 | 99.7 | 101 | 105 | 99.2 | 99.6 | 105 | 97.4 | > 10 | > 10 | > 10 | > 10 | > 10 |
| CC(C)c1ccc2oc3nc(N)c(C(=O)O)cc3c(=O)c2c1 [amlexanox] | 0 | 0 | 0 | 0 | 0 | 96.7 | 101 | 99.9 | 109 | 113 | 94 | 95.9 | 99.8 | 89.8 | 108 | 97.1 | 94.3 | 100 | 96.4 | 99.8 | 92.3 | 87.4 | 104 | 101 | 99.5 | 96.6 | 99.8 | 98.4 | 102 | 106 | > 10 | > 10 | > 10 | > 10 | > 10 |
| Clc1cccc(SC2CCNCC2)n1 [anpirtoline] | 0 | 0 | 0 | 0 | 0 | 109 | 102 | 107 | 104 | 97.9 | 93.1 | 93.5 | 101 | 100 | 96.8 | 99.3 | 96.5 | 100 | 96.1 | 100 | 94.9 | 98.6 | 93.5 | 98.3 | 114 | 102 | 104 | 99.1 | 98.4 | 96.5 | > 10 | > 10 | > 10 | > 10 | > 10 |

Source: the supplement of paper PMC13380429
